Data reported in EP4603105A1, “PHARMACEUTICAL COMPOSITION CONTAINING CYCLIC COMPOUND HAVING SELECTIVE KRAS INHIBITORY EFFECT AGAINST HRAS AND NRAS” (CHUGAI SEIYAKU KABUSHIKI KAISHA, priority 2022, dated 2024).
Read-outs that look alike come from different tables or passages of the source.

Columns and labels:
[1] = system: human lung cancer strain NCI-H441; assay: NCI-H441 cell proliferation inhibitory activity (CellTiter-Glo, 4 days); format: cell-based; conditions: read-out: NCl-H441 IC50
How it was run: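 Step one: dispense the test compound in serial DMSO dilutions. Step three: add the reagent and measure […].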

[2] = molecular target: GDP-bound KRAS wild-type protein (Homo sapiens, UniProt P01116); assay: Binding to KRAS by surface plasmon resonance (SPR), dissociation constant KD
GDP-bound KRAS wild-type protein, sequence (P01116 1-188 isoform P01116-2): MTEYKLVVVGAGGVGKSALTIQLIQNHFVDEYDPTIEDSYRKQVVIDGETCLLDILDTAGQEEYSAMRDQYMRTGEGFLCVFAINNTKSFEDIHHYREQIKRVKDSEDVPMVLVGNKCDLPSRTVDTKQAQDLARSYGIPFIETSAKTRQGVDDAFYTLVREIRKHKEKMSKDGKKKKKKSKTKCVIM
How it was run: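 Compound binding is evaluated by SPR single-cycle kinetics, with concentrations added intermittently from low to high for 75 s each. Target surfaces carry GDP-loaded biotinylated Avi-RAS at about 100–300 RU, regenerated after each cycle; temperature 30°C. A 1:1 binding model gives KD.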

[3] = molecular target: GDP-bound NRAS wild-type protein (Homo sapiens, UniProt P01111); assay: Binding to NRAS by surface plasmon resonance (SPR), KD and KD ratio to KRAS
GDP-bound NRAS wild-type protein, sequence (P01111 whole entry): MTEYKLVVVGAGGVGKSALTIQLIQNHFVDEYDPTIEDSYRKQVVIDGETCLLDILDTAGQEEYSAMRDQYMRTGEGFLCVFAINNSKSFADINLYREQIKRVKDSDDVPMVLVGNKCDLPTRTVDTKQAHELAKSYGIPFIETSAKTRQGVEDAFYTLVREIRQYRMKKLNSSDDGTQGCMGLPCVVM
How it was run: (§1)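 Biotinylated GDP-bound RAS was captured at about 100–300 RU. Running buffer: HBS pH 7.4, 10 mM MgCl2, 10 µM GDP, 1 mM DTT, 0.01% Tween 20, 4% DMSO.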

HRAS wild-type protein = HRAS wild-type protein (Homo sapiens, UniProt P01112); assay: Binding to HRAS by surface plasmon resonance (SPR), KD and KD ratio to KRAS
HRAS wild-type protein, sequence (P01112 whole entry): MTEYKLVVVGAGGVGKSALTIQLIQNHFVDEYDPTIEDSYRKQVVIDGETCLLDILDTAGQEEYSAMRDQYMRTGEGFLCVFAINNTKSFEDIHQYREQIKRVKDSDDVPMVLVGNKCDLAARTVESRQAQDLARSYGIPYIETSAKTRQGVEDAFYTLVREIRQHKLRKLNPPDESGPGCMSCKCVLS
How it was run: as §1

[4] = ratio of KD for GDP-bound NRAS wild-type protein to KD for KRAS
[5] = ratio of KD for HRAS wild-type protein to KD for KRAS
[6] = 50% proliferation inhibitory concentration, four days
[7] = Single Cycle Kinetics, 1:1 binding model
[8] = ratio of KD with respect to GDP-bound NRAS wild-type protein to KD with respect to KRAS
[9] = ratio of KD with respect to HRAS wild-type protein to KD with respect to KRAS

Structure (SMILES)	IC50 ([1]; NCI-H441 cells, 4 days) [nM]	Kd ([2]; Single Cycle Kinetics) [nM]	Kd ([2]; 1:1 binding model) [nM]	IC50 [1, 6] [nM]	Kd [2, 7] [nM]	NRAS /KRAS [3, 4]	HRAS /KRAS (HRAS wild-type protein; [5])	NRAS /KRAS [3, 8]	HRAS /KRAS (HRAS wild-type protein; [9])
CCC[C@@H]1NC(=O)C[C@@H](C(=O)N(C)C)N(C)C(=O)[C@H](C2CCCC2)N(C)C(=O)C2(CC(C)(C)C2)NC(=O)[C@@H]2C[C@@H](OCC)CN2C(=O)[C@H](CCc2ccc(C(F)(F)F)c(Cl)c2)NC(=O)CN(C)C(=O)[C@H](Cc2ccc(C(F)(F)F)cc2)N2CC/C=C\C[C@@H](C2=O)N(C)C(=O)CN(C)C(=O)[C@H]([C@@H](C)CC)NC1=O [PP3454]	26.2	0.3				A (a compound having 10 or more and less than 20 is denoted as A)	A (a compound having 10 or more and less than 20 is denoted as A)		
CCO[C@@H]1C[C@H]2C(=O)NC3(CCC3)C(=O)N(C)[C@@H](C3CCCC3)C(=O)N(C)[C@H](C(=O)N(C)C)CC(=O)N(C)[C@@H](CC3CCCC3)C(=O)N[C@@H]([C@@H](C)CC)C(=O)N(C)CC(=O)N(C)[C@H]3C/C=C\CCN(C3=O)[C@@H](Cc3ccc(C(F)(F)F)cc3)C(=O)N(C)CC(=O)N[C@@H](CCc3ccc(Cl)c(Cl)c3)C(=O)N2C1 [PP1254]				28.3	0.2			AA (a compound having 20 or more is denoted as AA)	A (a compound having 10 or more and less than 20 is denoted as A)
CCC[C@H]1C(=O)N[C@@H]([C@@H](C)CC)C(=O)N(C)CC(=O)N(C)[C@H]2C/C=C\CCN(C2=O)[C@@H](CC2CCCCC2)C(=O)N(C)CC(=O)N[C@@H](CCc2cc(F)c(C(F)(F)F)c(F)c2)C(=O)N2C[C@H](OCC)C[C@H]2C(=O)NC2(CCC2)C(=O)N(C)[C@@H](C2CCCC2)C(=O)N(C)[C@H](C(=O)N(C)C)CC(=O)N1C [PP1464]				32.3	0.15			A (a compound having 10 or more and less than 20 is denoted as A)	A (a compound having 10 or more and less than 20 is denoted as A)
CC[C@H](C)[C@@H]1NC(=O)[C@H](CC)N(C)C(=O)C[C@@H](C(=O)N(C)C)N(C)C(=O)[C@H](C2CCCC2)N(C)C(=O)C2(CCC2)NC(=O)[C@H](C)N(C)C(=O)[C@H](CCc2cc(F)c(C(F)(F)F)c(F)c2)NC(=O)CN(C)C(=O)[C@H](Cc2ccc(C(F)(F)F)cc2)N2CC/C=C\C[C@@H](C2=O)N(C)C(=O)CN(C)C1=O [PP1146]				202	0.32			A (a compound having 10 or more and less than 20 is denoted as A)	B (a compound having 3 or more and less than 10 is denoted as B)
CCC[C@H]1C(=O)N[C@@H]([C@@H](C)CC)C(=O)N(C)CC(=O)N(C)[C@H]2C/C=C\CCN(C2=O)[C@@H](Cc2ccc(C(F)(F)F)cc2)C(=O)N(C)CC(=O)N[C@@H](CCc2cc(F)c(C(F)(F)F)c(F)c2)C(=O)N2CC[C@H](OC)[C@H]2C(=O)N(C)C2(CCC2)C(=O)N(C)[C@@H](C2CCCC2)C(=O)N(C)[C@H](C(=O)N(C)C)CC(=O)N1C [PP3284]	5	0.067				A (a compound having 10 or more and less than 20 is denoted as A)	A (a compound having 10 or more and less than 20 is denoted as A)		
CCO[C@@H]1C[C@H]2C(=O)NC3(CC(C)(C)C3)C(=O)N(C)[C@@H](C(CC)CC)C(=O)N(C)[C@H](C(=O)N(C)C)CC(=O)N(C)[C@@H](COC)C(=O)N[C@@H]([C@@H](C)CC)C(=O)N3CCC[C@H]3C(=O)N(C)[C@H]3C/C=C\CCN(C3=O)[C@@H](Cc3ccc(C(F)(F)F)cc3)C(=O)N(C)CC(=O)N[C@@H](CCc3ccc(Cl)c(Cl)c3)C(=O)N2C1 [PP2635]	50.2		0.97			AA (a compound having 20 or more is denoted as AA)	A (a compound having 10 or more and less than 20 is denoted as A)		
CCCO[C@@H]1C[C@H]2C(=O)NC3(CC(C)(C)C3)C(=O)N(C)[C@@H](C3CCCC3)C(=O)N(C)[C@H](C(=O)N(C)CC)CC(=O)N(C)[C@@H](COCC)C(=O)N[C@@H]([C@@H](C)CC)C(=O)N3C[C@@H](C)C[C@H]3C(=O)N(C)[C@H]3C/C=C\CCN(C3=O)[C@@H](Cc3ccc(C(F)(F)F)cc3)C(=O)N(C)CC(=O)N[C@@H](CCc3ccc(C(F)(F)F)c(OC)c3)C(=O)N2C1 [PP3415]	47.5	2.5				A (a compound having 10 or more and less than 20 is denoted as A)	A (a compound having 10 or more and less than 20 is denoted as A)		
CCCO[C@@H]1C[C@H]2C(=O)NC3(CC(C)(C)C3)C(=O)N(C)[C@@H](C3CCCC3)C(=O)N(C)[C@H](C(=O)N(C)CC)CC(=O)N[C@@H](COCC)C(=O)N[C@@H]([C@@H](C)CC)C(=O)N(C3CC3)CC(=O)N(C)[C@H]3C/C=C\CCN(C3=O)[C@@H](Cc3ccc(C)cc3)C(=O)N(C)CC(=O)N[C@@H](CCc3ccc(C(F)(F)F)c(OC)c3)C(=O)N2C1 [PP3437]	51.6	1.3				AA (a compound having 20 or more is denoted as AA)	A (a compound having 10 or more and less than 20 is denoted as A)		
CCC[C@H]1C(=O)N[C@@H](C2CCCC2)C(=O)N(C)CC(=O)N(C)[C@H]2C/C=C\CCN(C2=O)[C@@H](Cc2ccc(C)cc2)C(=O)N(C)CC(=O)N[C@@H](CCc2ccc(C(F)(F)F)c(Cl)c2)C(=O)N2CC3(CC3)C[C@H]2C(=O)N(C)C2(CCC2)C(=O)N(C)[C@@H]([C@@H](C)CC)C(=O)N(C)[C@H](C(=O)N(C)C)CC(=O)N1C [PP3326]	12.6	0.22				A (a compound having 10 or more and less than 20 is denoted as A)	A (a compound having 10 or more and less than 20 is denoted as A)		

More lines, main results first:

IC50 ([1]; NCI-H441 cells, 4 days) [nM]	Kd ([2]; Single Cycle Kinetics) [nM]	Kd ([2]; 1:1 binding model) [nM]	IC50 [1, 6] [nM]	Kd [2, 7] [nM]	Structure (SMILES)	NRAS /KRAS [3, 4]	HRAS /KRAS (HRAS wild-type protein; [5])	NRAS /KRAS [3, 8]	HRAS /KRAS (HRAS wild-type protein; [9])
95.2		2.6			CCC(CC)[C@H]1C(=O)N(C)[C@H](C(=O)N(C)C)CC(=O)N(C)[C@@H](COC)C(=O)N[C@@H]([C@@H](C)CC)C(=O)N(C2CC2)CC(=O)N(C)[C@H]2C/C=C\CCN(C2=O)[C@@H](CC2CCC(F)(F)CC2)C(=O)N(C)CC(=O)N[C@@H](CCc2cc(F)c(C(F)(F)F)c(F)c2)C(=O)N2C[C@H](OC3CCCC3)C[C@H]2C(=O)NC2(CC(C)(C)C2)C(=O)N1C [PP2627]	A (a compound having 10 or more and less than 20 is denoted as A)	A (a compound having 10 or more and less than 20 is denoted as A)		
14.3		0.18			CC[C@H](C)[C@@H]1NC(=O)[C@H](COC)N(C)C(=O)C[C@@H](C(=O)N(C)C)N(C)C(=O)[C@H](C2CCCCC2)N(C)C(=O)C2(CC(C)(C)C2)NC(=O)[C@@H]2C[C@@H](OC(C)C)CN2C(=O)[C@H](CCc2cc(F)c(C(F)(F)F)c(F)c2)NC(=O)CN(C)C(=O)[C@H](Cc2ccc(C)cc2)N2CC/C=C\C[C@@H](C2=O)N(C)C(=O)CN(C)C1=O [PP2660]	A (a compound having 10 or more and less than 20 is denoted as A)	A (a compound having 10 or more and less than 20 is denoted as A)		
18.2	1.2				CCCC[C@H]1C(=O)N[C@@H]([C@@H](C)CC)C(=O)N(C2CC2)CC(=O)N(C)[C@H]2C/C=C\CCN(C2=O)[C@@H](Cc2ccc(C)cc2)C(=O)N(C)CC(=O)N[C@@H](CCc2ccc(C(F)(F)F)c(OC)c2)C(=O)N2C[C@H](OCC)C[C@H]2C(=O)OC2(CCC2)C(=O)N(C)[C@@H](C2CCCC2)C(=O)N(C)[C@H](C(=O)N(C)C)CC(=O)N1C [PP3384]	A (a compound having 10 or more and less than 20 is denoted as A)	B (a compound having 3 or more and less than 10 is denoted as B)		
12.9	0.49				CCC[C@H]1C(=O)N[C@@H]([C@@H](C)CC)C(=O)N2CCC[C@H]2C(=O)N(C)[C@H]2C/C=C\CCN(C2=O)[C@@H](Cc2ccc(C)cc2)C(=O)N(C)CC(=O)N[C@@H](CCc2cc(F)c(C(F)(F)F)c(F)c2)C(=O)N2C[C@H](OCC)C[C@H]2C(=O)NC2(CCCC2)C(=O)N(C)[C@@H](C2CCCC2)C(=O)N(C)[C@H](C(=O)N(C)C)CC(=O)N1C [PP3480]	A (a compound having 10 or more and less than 20 is denoted as A)	A (a compound having 10 or more and less than 20 is denoted as A)		
			4.2	0.13	CC[C@H](C)[C@@H]1NC(=O)[C@H](CC)N(C)C(=O)C[C@@H](C(=O)N2CCOCC2)N(C)C(=O)[C@H](C2CCCC2)N(C)C(=O)C2(CCCC2)NC(=O)[C@@H]2CCCN2C(=O)[C@H](CCc2cc(F)c(C(F)(F)F)c(F)c2)NC(=O)CN(C)C(=O)[C@H](Cc2ccc(C(F)(F)F)cc2)N2C[C@H](C)[C@H](C)C[C@@H](C2=O)N(C)C(=O)CN(C)C1=O [PP1365]			A (a compound having 10 or more and less than 20 is denoted as A)	B (a compound having 3 or more and less than 10 is denoted as B)
10.9	0.32				CCCO[C@@H]1C[C@H]2C(=O)NC3(CC(C)(C)C3)C(=O)N(C)[C@@H](C3CCCC3)C(=O)N(C)[C@H](C(=O)N(C)CC)CC(=O)N(C)[C@@H](COCC)C(=O)N[C@@H]([C@@H](C)CC)C(=O)N3C[C@@H](F)C[C@H]3C(=O)N(C)[C@H]3C/C=C\CCN(C3=O)[C@@H](Cc3ccc(C(F)(F)F)cc3)C(=O)N(C)CC(=O)N[C@@H](CCc3cc(F)c(C(F)(F)F)c(F)c3)C(=O)N2C1 [PP3401]	A (a compound having 10 or more and less than 20 is denoted as A)	A (a compound having 10 or more and less than 20 is denoted as A)		
